Tested on: human dermal papilla cells
Test: Human dermal papilla cell proliferation test
Format: cell-based
Conditions: 0.002% in culture media; cell count at 12-60 hour; FIG. 1; result in words
Experimental: The promotion of cell proliferation by adenine was evaluated using human dermal papilla cells, compared with adenosine, and minoxidil under the following conditions, the results are shown in FIG. 1. Determination of the proliferation of human dermal papilla cells in the culture media containing adenine, adenosine, and minoxidil. Supplements: 0.002% of adenine, adenosine, minoxidil. • (1) Prepare 0.002% adenine, adenosine, minoxidil containing testing media using the hair follicle dermal papilla cell media (cat. No. 611-500, Cell applications, Inc) . • (2) Seed the isolated human dermal papilla cells in 96-well culture plate with a density of 5,000 cells per well. Add 0.1 mL prepared culture media into individual well. • (3) At 12, 24, 36, 48 and 60 hour after cell seeding, visually count the total cell number using hemacytometer. • (4) Evaluate the result.

Compound: Nc1ncnc2nc[nH]c12 [adenine]
- proliferation of human dermal papilla cells: promotes the proliferation

Reference: patent EP2465581B1, “Non-therapeutic use of a composition for promoting hair growth” (Energenesis Biomedical Co., Ltd., priority 2010, dated 2012)
